Experimental data published in ChEMBL document CHEMBL3813680, “Discovery of a 2-hydroxyacetophenone derivative as an outstanding linker to enhance potency and β-selectivity of liver X receptor agonist” (Bioorg Med Chem, 2016).
Calls of active or inactive are those of the source. The calls are words filed in the database; no cut-off is given here.

How the values were obtained:
[1] = AUC in mouse plasma at 100 mg/kg, po measured up to 24 hrs by HPLC-LC-MS/MS analysis; format: ADME, organism-based; design: dose 100 mg/kg, time < 24 hr, route oral
[2] = Cmax in mouse plasma at 100 mg/kg, po measured up to 24 hrs by HPLC-LC-MS/MS analysis; format: ADME, organism-based; design: dose 100 mg/kg, route oral
[3] = target: T1, Oxysterols receptor LXR-beta (Homo sapiens) (UniProt P55055); test: Agonist activity at GAL4 fused LXRbeta-LBD (unknown origin) transfected in CHOK1 cells at 10 uM after 24 hrs by luciferase reporter gene assay in presence of T0901317; format: cell-based; settings: CHO-K1
T1 sequence (whole entry): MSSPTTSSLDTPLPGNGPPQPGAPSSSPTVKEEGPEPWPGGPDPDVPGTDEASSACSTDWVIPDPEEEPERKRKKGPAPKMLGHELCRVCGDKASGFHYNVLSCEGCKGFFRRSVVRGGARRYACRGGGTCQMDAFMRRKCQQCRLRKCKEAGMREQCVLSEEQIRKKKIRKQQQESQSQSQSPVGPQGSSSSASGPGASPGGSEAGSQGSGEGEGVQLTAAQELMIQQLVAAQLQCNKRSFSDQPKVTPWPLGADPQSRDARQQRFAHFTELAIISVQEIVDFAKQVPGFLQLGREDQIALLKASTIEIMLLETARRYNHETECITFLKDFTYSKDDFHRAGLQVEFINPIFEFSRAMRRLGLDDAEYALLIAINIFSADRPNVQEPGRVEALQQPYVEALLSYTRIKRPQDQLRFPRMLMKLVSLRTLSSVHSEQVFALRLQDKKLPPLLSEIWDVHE

[4] = target: T2, Oxysterols receptor LXR-alpha (Homo sapiens) (UniProt Q13133); test: Agonist activity at GAL4 fused LXRalpha (unknown origin) transfected in CHOK1 cells at 10 uM after 24 hrs by luciferase reporter gene assay; format: cell-based; settings: CHO-K1
T2 sequence (whole entry): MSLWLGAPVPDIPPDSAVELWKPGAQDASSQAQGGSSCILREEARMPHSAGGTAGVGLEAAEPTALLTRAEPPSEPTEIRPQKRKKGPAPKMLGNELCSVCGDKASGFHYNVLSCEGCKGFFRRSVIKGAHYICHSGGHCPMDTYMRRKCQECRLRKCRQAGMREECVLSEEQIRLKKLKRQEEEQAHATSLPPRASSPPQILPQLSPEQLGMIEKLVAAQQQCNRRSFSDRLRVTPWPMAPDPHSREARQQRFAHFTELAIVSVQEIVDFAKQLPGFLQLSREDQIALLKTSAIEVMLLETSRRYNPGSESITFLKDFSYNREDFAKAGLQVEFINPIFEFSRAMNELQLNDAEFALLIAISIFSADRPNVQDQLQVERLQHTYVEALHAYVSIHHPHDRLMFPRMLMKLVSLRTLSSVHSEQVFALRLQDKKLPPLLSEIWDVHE

[5] = target: T1, Oxysterols receptor LXR-beta (Homo sapiens); test: Agonist activity at GAL4 fused LXRbeta-LBD (unknown origin) transfected in CHOK1 cells at 10 uM after 24 hrs by luciferase reporter gene assay; format: cell-based; settings: CHO-K1
[6] = target: T2, Oxysterols receptor LXR-alpha (Homo sapiens); test: Agonist activity at GAL4 fused LXRalpha (unknown origin) transfected in CHOK1 cells at 10 uM after 24 hrs by luciferase reporter gene assay in presence of T0901317; format: cell-based; settings: CHO-K1
[7] = target: T3, Oxysterols receptor LXR-beta (Homo sapiens, UniProt P55055); test: Agonist activity at GAL4 fused LXRbeta-LBD (unknown origin) transfected in CHOK1 cells after 24 hrs by luciferase reporter gene assay
T3 sequence (P55055 whole entry): T1 sequence (whole entry)

CHO-K1 = test: Selectivity ratio of EC50 for GAL4 fused LXRalpha (unknown origin) transfected in CHOK1 cells to EC50 for GAL4 fused LXRbeta-LBD (unknown origin) transfected in CHOK1 cells; format: cell-based; settings: Homo sapiens
[8] = target: T4, Oxysterols receptor LXR-alpha (Homo sapiens, UniProt Q13133); test: Agonist activity at GAL4 fused LXRalpha (unknown origin) transfected in CHOK1 cells after 24 hrs by luciferase reporter gene assay
T4 sequence (Q13133 whole entry): T2 sequence (whole entry)

[9] = Intrinsic clearance in human liver microsomes at 1 umol/L; format: ADME; settings: read-out: CLH
[10] = Intrinsic clearance in mouse liver microsomes at 1 umol/L; format: ADME; settings: read-out: CLH
[11] = Intrinsic clearance in hamster liver microsomes at 1 umol/L; format: ADME; settings: cricetinae, read-out: CLH
Mus musculus [12] = test: Antiatherosclerosis activity in LDL receptor knock out mouse model assessed as decrease in TC levels at 10 mg/kg, po by HPLC analysis relative to control; format: functional; design: scale not given: the % may be the effect or the level left
Mus musculus [13] = test: Antiatherosclerosis activity in LDL receptor knock out mouse model assessed as decrease in LDL-C levels at 10 mg/kg, po by HPLC analysis relative to control; format: functional; design: scale not given: the % may be the effect or the level left
Mus musculus [14] = test: Antiatherosclerosis activity in LDL receptor knock out mouse model assessed as increase in TG levels at 10 mg/kg, po by HPLC analysis relative to control; format: functional
Mus musculus [15] = test: Antiatherosclerosis activity in LDL receptor knock out mouse model assessed as decrease in area of lipid accumulation at 10 mg/kg, po by HPLC analysis relative to control; format: functional; design: scale not given: the % may be the effect or the level left
Mus musculus [16] = test: Antiatherosclerosis activity in LDL receptor knock out mouse model assessed as […] in HDL-C levels at 10 mg/kg, po by HPLC analysis relative to control; format: functional; design: scale not given: the % may be the effect or the level left

Emax [3] [%]	Activity [4]	Emax [6] [%]	EC50 [7] [nM]	EC50 [8] [nM]	Structure (SMILES)	Ratio EC50 (CHO-K1)	further results
1	inactive	0	–	–	CCCc1cc(C(O)(C(F)(F)F)C(F)(F)F)cc(CCC)c1OC/C=C\CN1C(=O)NC(C)(c2ccc(OC(C)C)cc2)C1=O (stereo not drawn)	–	Activity [5]: inactive
615	–	53	700	3140	CCCc1cc(C(O)(C(F)(F)F)C(F)(F)F)ccc1Oc1ccc(CCN2C(=O)NC(C)(c3ccc(OC(C)C)cc3)C2=O)c(C)c1 (stereo not drawn)	4.89	–
149	–	27	610	860	CCCc1cc(C(O)(C(F)(F)F)C(F)(F)F)cc(CCC)c1OCC#CCN1C(=O)NC(C)(c2ccc(OC(C)C)cc2)C1=O (stereo not drawn)	1.41	–
182	–	40	800	1230	CCCc1cc(C(O)(C(F)(F)F)C(F)(F)F)cc(CCC)c1OC/C=C/CN1C(=O)NC(C)(c2ccc(OC(C)C)cc2)C1=O (stereo not drawn)	1.54	–
284	inactive	1	2870	–	CCCc1cc(C(O)(C(F)(F)F)C(F)(F)F)ccc1Oc1ccc(CCN2C(=O)NC(C)(c3ccc(OC(C)C)cc3)C2=O)c(O)c1 (stereo not drawn)	3.48	–
126	–	23	2850	2890	CCCc1cc(C(O)(C(F)(F)F)C(F)(F)F)ccc1Oc1cccc(CCN2C(=O)NC(C)(c3ccc(OC(C)C)cc3)C2=O)c1 (stereo not drawn)	1.01	–
534	inactive	0	1660	–	CCCc1cc(C(O)(C(F)(F)F)C(F)(F)F)ccc1Oc1ccc(CCN2C(=O)NC(C)(c3ccc(OC(C)C)cc3)C2=O)c(OC)c1 (stereo not drawn)	6.02	–
429	–	53	500	1960	CCCc1cc(C(O)(C(F)(F)F)C(F)(F)F)ccc1Oc1cccc(CN2C(=O)NC(C)(c3ccc(OC(C)C)cc3)C2=O)c1 (stereo not drawn)	3.92	–

The next lines start with the molecule.

Structure (SMILES)	Emax [3] [%]	Activity [4]	Emax [6] [%]	EC50 [7] [nM]	EC50 [8] [nM]	Ratio EC50 (CHO-K1)	further results
CCCc1cc(C(O)(C(F)(F)F)C(F)(F)F)cc(CCC)c1OCCCCN1C(=O)NC(C)(c2ccc(OC(C)C)cc2)C1=O (racemic)	–	–	–	–	–	–	AUC at 24 h [1]: 3420 ng·h/mL; Cmax [2]: 406 ng/mL
CCCc1cc(C(O)(C(F)(F)F)C(F)(F)F)ccc1Oc1ccc(C(=O)CN2C(=O)NC(C)(c3ccc(OC(C)C)cc3)C2=O)c(OC)c1 (stereo not drawn)	306	–	38	360	3740	10.4	–
CCCc1cc(C(O)(C(F)(F)F)C(F)(F)F)ccc1Oc1ccc(C(=O)CN2C(=O)NC(C)(c3ccc(OC(C)C)cn3)C2=O)c(O)c1 (single isomer, unassigned; (+)) [listing 1 of 2 here]	–	–	–	2900	–	–	–
CCCc1cc(C(O)(C(F)(F)F)C(F)(F)F)ccc1Oc1ccc(C(=O)CN2C(=O)NC(C)(c3ccc(OC(C)C)cc3)C2=O)c(C)c1 (stereo not drawn)	264	–	71	64	400	6.25	–
CCCc1cc(C(O)(C(F)(F)F)C(F)(F)F)ccc1Oc1ccc(CCN2C(=O)NC(C)(c3ccc(OC(C)C)cc3)C2=O)cc1 (stereo not drawn)	223	inactive	1	1880	–	> 5.32	–
CCCc1cc(C(O)(C(F)(F)F)C(F)(F)F)ccc1Oc1ccc(C(=O)CN2C(=O)NC(C)(c3ccc(OC(C)C)cn3)C2=O)c(O)c1 (racemic) [listing 1 of 2 here]	329	–	68	–	–	5.69	–
CCCc1cc(C(O)(C(F)(F)F)C(F)(F)F)ccc1Oc1ccc(C(=O)CN2C(=O)NC(C)(c3ccc(OC(C)C)cn3)C2=O)c(O)c1 (single isomer, unassigned; (-))	255	–	164	–	–	–	–
CCCc1cc(C(O)(C(F)(F)F)C(F)(F)F)ccc1Oc1ccc(CN2C(=O)NC(C)(c3ccc(OC(C)C)cc3)C2=O)cc1 (stereo not drawn)	22	inactive	0	1810	–	> 5.52	–
CCCc1cc(C(O)(C(F)(F)F)C(F)(F)F)ccc1Oc1ccc(C(=O)CN2C(=O)NC(C)(c3ccc(OC(C)C)cn3)C2=O)c(O)c1 (racemic) [listing 2 of 2 here]	–	–	–	58	330	–	microsomal CLint at 1 µM [9]: 7 µL/min/mg; microsomal CLint at 1 µM [10]: 24 µL/min/mg; microsomal CLint at 1 µM [11]: 11 µL/min/mg
CCCc1cc(C(O)(C(F)(F)F)C(F)(F)F)ccc1Oc1ccc(C(=O)CN2C(=O)NC(C)(c3ccc(OC(C)C)cc3)C2=O)cc1 (stereo not drawn)	236	–	46	120	360	3	–
CCCc1cc(C(O)(C(F)(F)F)C(F)(F)F)ccc1Oc1ccc(C(=O)CN2C(=O)NC(C)(c3ccc(OC(C)C)cn3)C2=O)c(O)c1 (single isomer, unassigned; (+)) [listing 2 of 2 here]	269	inactive	25	–	–	–	–
CCCc1cc(C(O)(C(F)(F)F)C(F)(F)F)ccc1Oc1ccc(C(O)CN2C(=O)NC(C)(c3ccc(OC(C)C)cc3)C2=O)cc1 (stereo not drawn)	176	inactive	5	2330	–	4.29	–
CCCc1cc(C(O)(C(F)(F)F)C(F)(F)F)ccc1Oc1ccc(C(=O)CN2C(=O)NC(C)(c3ccc(OC(C)C)cc3)C2=O)c(O)c1 (stereo not drawn)	348	–	55	110	340	3.09	microsomal CLint at 1 µM [9]: 12 µL/min/mg; microsomal CLint at 1 µM [10]: 76 µL/min/mg; microsomal CLint at 1 µM [11]: 27 µL/min/mg
O=S(=O)(c1ccccc1)N(CC(F)(F)F)c1ccc(C(O)(C(F)(F)F)C(F)(F)F)cc1 [T091317]	–	–	–	–	–	–	Activity (Mus musculus [12]): 96%; Activity (Mus musculus [13]): 55%; Activity (Mus musculus [14]): 465%; Activity (Mus musculus [15]): 40%; Activity (Mus musculus [16]): 47%
